Assay results published in PMC12448892 (2025).

What was measured:
[1] = system: ADH1 WT (DNA, G4) GGGGCCGGTAGCGAGTGATAGCGAGGGAAAGACGATCGCTATCGGGCCGTAAGGAGGAAATGGGAGGTTGGGGG; assay: circular dichroism; details: 100 mM KCl; 10 mM Tris pH 7.5, 25 °C; 5 μM DNA, 10 μM PhenDC3; slight broadening of spectra
[2] = system: ADH1 5_G MUT (DNA, G4) GTGGCCGGTAGCGAGTGATAGCGAGTGAAAGACGATCGCTATCGTGCCGTAACGAGGAAATGTGAGGTTGGGGG; assay: circular dichroism; details: 100 mM KCl; 10 mM Tris pH 7.5, 25 °C; 5 μM DNA, 10 μM PhenDC3; slight broadening of spectra
[3] = system: ADH1 4_G MUT (DNA, G4) GTGGCCGGTAGCGAGTGATAGCGAGTGAAAGACGATCGCTATCGTGCCGTAAGGAGGAAATGTGAGGTTGGGGG; assay: circular dichroism; details: 100 mM KCl; 10 mM Tris pH 7.5, 25 °C; 5 μM DNA, 10 μM PhenDC3; slight broadening of spectra
[4] = system: ADH1 WT (DNA, G4) GGGGCCGGTAGCGAGTGATAGCGAGGGAAAGACGATCGCTATCGGGCCGTAAGGAGGAAATGGGAGGTTGGGGG; assay: ThT fluorescence titration; details: 10 mM KCl; 10 mM Tris pH 7.5, room temperature; 0.5 μM ThT; apparent
[5] = system: ADH1 5_G MUT (DNA, G4) GTGGCCGGTAGCGAGTGATAGCGAGTGAAAGACGATCGCTATCGTGCCGTAACGAGGAAATGTGAGGTTGGGGG; assay: ThT fluorescence titration; details: 10 mM KCl; 10 mM Tris pH 7.5, room temperature; 0.5 μM ThT; apparent
[6] = system: ADH1 4_G MUT (DNA, G4) GTGGCCGGTAGCGAGTGATAGCGAGTGAAAGACGATCGCTATCGTGCCGTAAGGAGGAAATGTGAGGTTGGGGG; assay: ThT fluorescence titration; details: 10 mM KCl; 10 mM Tris pH 7.5, room temperature; 0.5 μM ThT; apparent

With `C[n+]1cc(NC(=O)c2ccc3ccc4ccc(C(=O)Nc5cc6ccccc6[n+](C)c5)nc4c3n2)cc2ccccc21` the binding [1] was “yes”, the binding [2] was “yes” and the binding [3] was “yes”.

With `Cc1ccc2c(c1)sc(-c1ccc(N(C)C)cc1)[n+]2C` the k [4] was 0.65 ± 0.04 µM, the k [5] was 0.89 ± 0.13 µM and the k [6] was 0.76 ± 0.06 µM.
